In patent publication US20260334439A1, “BCAT2 INHIBITORS” (Agios Pharmaceuticals, Inc., priority 2023, published 2026):

Assays:
BCAT2 [1] = molecular target: T1, BCAT2 (Homo sapiens, UniProt O15382); test: BCAT2 cell inhibition using engineered A549 cells (MUT KO, BCAT1 KO; 13C6-KMV formation by LC-MS/MS); assay type: cell-based; parameters: expressed endogenous BCAT2; endogenous in cells; host or cells: A549 cells, MUT knockout and BCAT1 knockout
T1 sequence (O15382 28-392): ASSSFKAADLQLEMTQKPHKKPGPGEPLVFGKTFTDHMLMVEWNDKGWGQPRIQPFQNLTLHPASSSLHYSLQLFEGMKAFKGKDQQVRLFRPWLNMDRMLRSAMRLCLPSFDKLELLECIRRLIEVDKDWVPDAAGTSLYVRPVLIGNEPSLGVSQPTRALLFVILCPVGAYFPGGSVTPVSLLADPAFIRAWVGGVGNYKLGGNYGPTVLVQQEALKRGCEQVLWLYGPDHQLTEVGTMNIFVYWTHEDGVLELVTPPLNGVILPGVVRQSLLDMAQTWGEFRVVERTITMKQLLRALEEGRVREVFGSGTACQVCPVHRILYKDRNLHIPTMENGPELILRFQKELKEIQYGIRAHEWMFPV
Outline: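 Medium 13C6-KMV formation is read by LC-MS/MS after PFBHA derivatization with d8-KMV internal standard. Cells are CRISPR MUT/BCAT1 double-knockout A549 expressing endogenous BCAT2, given compound 15 min before labelled isoleucine (800 uM, added 1:1) for 24 h. CTG viability run in parallel; replicates averaged.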

BCAT2 [2] = molecular target: T1, BCAT2; test: BCAT2 in vitro enzyme inhibition assay (hBCAT2, glutamate dehydrogenase/diaphorase/resazurin coupled fluorescence read); assay type: biochemical; settings: hBCAT2, 1 h preincubation at 25° C., one hour reaction; average where tested multiple times
Outline: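 Coupled GDH/diaphorase/resazurin fluorescence (Ex 540/Em 590) read after 1 h reaction at 25 °C, SDS-stopped; enzyme (0.33 μg/mL in mix) first preincubated 1 h with compound, 10-point 3-fold series from 100 μM final, Tris pH 8.0 buffer with NaCl, BSA; technical duplicates, averaged across tests.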

IC50 (BCAT2 [1]; read-out: BCAT2 Cell Inhibition (IC50), engineered A549 cells, 24 hours, 13C6-KMV in media, average where tested multiple times) | IC50 (BCAT2 [2]) | IC50 (BCAT2 [1]) | Structure (SMILES)
> 1 µM | 0.1 to 0.5 µM | – | CN1C[C@@H](NC(=O)c2cc(F)ccn2)C[C@@H](n2c(-c3ccccc3F)nc3cnc(-c4nc[nH]n4)cc32)C1 [Example 133, 4-fluoro-N-((3S,5R)-5-(2-(2-fluorophenyl)-6-(1H-1,2,4-triazol-3-yl)-1H-imidazo[4,5-c]pyridin-1-yl)-1-methylpiperidin-3-yl)picolinamide]
– | < 0.1 µM | < 0.1 µM | CO[C@H]1C[C@H](NC(=O)c2cc(F)ccc2F)C[C@H](n2c(-c3ccccc3F)nc3cnc(-c4nc[nH]n4)cc32)C1 [Example 122, 2,5-difluoro-N-((1R,3S,5S)-3-(2-(2-fluorophenyl)-6-(1H-1,2,4-triazol-3-yl)-1H-imidazo[4,5-c]pyridin-1-yl)-5-methoxycyclohexyl)benzamide]
– | < 0.1 µM | 0.5 to 1 µM | CC(C)Cc1nc2cnc(-n3nccn3)cc2n1[C@@H]1CCC[C@H](NC(=O)c2cc(Cl)ccc2OCCO)C1 [Example 57, 5-chloro-2-(2-hydroxyethoxy)-N-((1S,3R)-3-(2-isobutyl-6-(2H-1,2,3-triazol-2-yl)-1H-imidazo[4,5-c]pyridin-1-yl)cyclohexyl)benzamide]
– | < 0.1 µM | < 0.1 µM | CC(=O)N1CC(N2Cc3ccc(F)cc3C2=O)CC(n2c(-c3c(F)cccc3F)nc3cnc(-c4nc[nH]n4)cc32)C1 (centres unmarked) [Example 201, 2-(1-acetyl-5-(2-(2,6-difluorophenyl)-6-(1H-1,2,4-triazol-3-yl)-1H-imidazo[4,5-c]pyridin-1-yl)piperidin-3-yl)-6-fluoroisoindolin-1-one]
– | < 0.1 µM | < 0.1 µM | COCCOc1ccc(Cl)cc1C(=O)N[C@H]1CCC[C@@H](n2c(-c3ccccc3F)nc3cnc(-c4nc[nH]n4)cc32)C1 [Example 54, 5-chloro-N-((1S,3R)-3-(2-(2-fluorophenyl)-6-(1H-1,2,4-triazol-3-yl)-1H-imidazo[4,5-c]pyridin-1-yl)cyclohexyl)-2-(2-methoxyethoxy)benzamide]
– | < 0.1 µM | 0.1 to 0.5 µM | O=C(N[C@H]1CCC[C@@H](n2c(-c3ccccc3OCCO)nc3cnc(-c4nc[nH]n4)cc32)C1)c1cc(F)ccc1F [Example 85, 2,5-difluoro-N-((1S,3R)-3-(2-(2-(2-hydroxyethoxy)phenyl)-6-(1H-1,2,4-triazol-3-yl)-1H-imidazo[4,5-c]pyridin-1-yl)cyclohexyl)benzamide]
– | < 0.1 µM | < 0.1 µM | O=C1c2cc(Cl)ccc2OCN1[C@H]1CCC[C@@H](n2c(-c3ccccc3F)nc3cnc(-c4nc[nH]n4)cc32)C1 [Example 202, 6-chloro-3-((1S,3R)-3-(2-(2-fluorophenyl)-6-(1H-1,2,4-triazol-3-yl)-1H-imidazo[4,5-c]pyridin-1-yl)cyclohexyl)-2,3-dihydro-4H-benzo[e][1,3]oxazin-4-one]
– | < 0.1 µM | 0.1 to 0.5 µM | O=C(N[C@H]1CCC[C@@H](n2c(-c3ccccc3F)nc3ccc(-c4nc[nH]n4)cc32)[C@@H]1O)c1cc(Cl)ccn1 [Example 218, 4-chloro-N-((1S,2R,3R)-3-(2-(2-fluorophenyl)-6-(1H-1,2,4-triazol-3-yl)-1H-benzo[d]imid-azol-1-yl)-2-hydroxycyclohex-yl)picolinamide]
– | < 0.1 µM | 0.1 to 0.5 µM | O=C(N[C@H]1CCC[C@@H](n2c(-c3ccccc3F)nc3cnc(-c4nc[nH]n4)cc32)C1)c1cc(Cl)ccc1OC(CO)CO [Example 90, 5-chloro-2-((1,3-dihydroxypropan-2-yl)oxy)-N-((1S,3R)-3-(2-(2-fluorophenyl)-6-(1H-1,2,4-triazol-3-yl)-1H-imidazo[4,5-c]pyridin-1-yl)cyclohexyl)benzamide]
– | < 0.1 µM | < 0.1 µM | CO[C@@H]1C[C@H](NC(=O)c2cc(F)ccn2)C[C@H](n2c(-c3ccccc3F)nc3cnc(-c4nc[nH]n4)cc32)C1 [Example 114, 4-fluoro-N-((1R,3S,5R)-3-(2-(2-fluorophenyl)-6-(1H-1,2,4-triazol-3-yl)-1H-imidazo[4,5-c]pyridin-1-yl)-5-methoxycyclohexyl)picolinamide]
